The values below are quoted from earlier work in patent publication US8188245B2, “Enduracidin biosynthetic gene cluster from streptomyces fungicidicus” (priority 2006, dated 2012).

Where only a bound is given, the exact number is not on record here.

The subject of series [1] is S. aureus (100 strains, including 40% MRSA). Conditions: 100 strains of S. aureus.
Series [2] has as its system Gram-positive organisms, including MRSA.
Series [3] relates to vancomycin resistant bacteria.

With Enduracidin, in the series on MRSA (in vivo), the “Toxicity or side effects” value is listed as “No toxicity or side effects were reported”. Further, the Efficacy in humans result with MRSA (urinary tract and skin infections caused by MRSA) is reported as “effective”. The “Concentration that no strain was able to survive” value in series [1] was 1 µg/mL. The “Type of antibacterial effect” value in series [2] (in vitro) is “bactericidal”. The “Minimal inhibitory concentrations (MICs)” value in series [2] (wide spectrum of primarily Gram-positive organisms, lowest MICs ("as low as")) was ≥ 0.05 µg/mL. Moreover, the Antibacterial activity result in series [2] (wide variety of Gram-positive bacteria, including VRE and MRSA) is “active”; in series [3], “active”.
